The values below come from patent US8470810B2, “Heterocyclic compounds suitable for treating disorders that respond to modulation of the dopamine D3 receptor” (Abbott GmbH & Co. KG, priority 2004, dated 2013).

The structures appear in SMILES notation. Where a name gives a salt, the structure may show the parent alone.

The target in assay [1] is T1, human dopamine D3 receptors (Homo sapiens, UniProt P35462).
T1 construct: expressed in transfected cells
The assay can be described thus: Dopamine D3 receptor binding, displacement of [125I]-iodosulpride. As to conditions: for Ki: membranes of HEK-293 cells stably expressing human D3, 0.1 nM [125I]-iodosulpride, 25° C., 60 minutes; for Ki(D2)*/Ki(D3)*: selectivity ratio of the receptor binding constants D2 over D3. The method, then:
(§1) The substance to be tested was either dissolved in methanol/Chremophor® (BASFAG) or in dimethyl sulfoxide and then diluted with water to the desired concentration.
(§2) Each assay mixture was run in triplicate.
The incubation buffer contained 50 mM tris, 120 mM NaCl, 5 mM KCl, 2 mM CaCl2, 2 mM MgCl2 and 0.1% bovine serum albumin, 10 μM quinolone and 0.1% ascorbic acid (prepared fresh daily). The buffer was adjusted to pH 7.4 with HCl.
(§3) After having been incubated at 25° C. for 60 minutes, the assay mixtures were filtered through a Whatman GF/B glass fiber filter under vacuum using a cell collecting device. The filters were transferred to scintillation viols using a filter transfer system. After 4 ml of Ultima Gold® (Packard) have been added, the samples were shaken for one hour and the radioactivity was then counted in a Beta-Counter (Packard, Tricarb 2000 or 2200CA). The cpm values were converted into dpm using a standard quench series and the program belonging to the instrument.
(§4) The inhibition curves were analyzed by means of iterative nonlinear regression analysis using the Statistical Analysis System (SAS) which is similar to the “LIGAND” program described by Munson and Rodbard.
(§5) The results of the receptro binding studies are expressed as receptor binding constants Ki(D2) and Ki(D3), respectively, as herein before described, and given in table 6.
Background: In a radioligand displacement assay an active substance lowers the binding of a labelled ligand.

Assay [2] has as its target T2, human dopamine D2L receptors (long isoform) (Homo sapiens, UniProt P14416).
T2 construct: expressed in transfected cells
Description: Dopamine D2L receptor binding, displacement of [125I] iodospiperone. As to conditions: membranes of HEK-293 cells stably expressing human D2L; 0.01 nM [125I] iodospiperone; 25° C., 60 minutes; read-out: Ki(D2)*. The method, then:
as §1, §2
The incubation buffer contained 50 mM tris, 120 mM NaCl, 5 mM KCl, 2 mM CaCl2, 2 mM MgCl2 and 0.1% bovine serum albumin. The buffer was adjusted to pH 7.4 with HCl.
as §3, §4, §5

Broadly, the Ki is a measure of affinity in units of concentration, obtained from inhibition or displacement.

T1 sequence (P35462 whole entry): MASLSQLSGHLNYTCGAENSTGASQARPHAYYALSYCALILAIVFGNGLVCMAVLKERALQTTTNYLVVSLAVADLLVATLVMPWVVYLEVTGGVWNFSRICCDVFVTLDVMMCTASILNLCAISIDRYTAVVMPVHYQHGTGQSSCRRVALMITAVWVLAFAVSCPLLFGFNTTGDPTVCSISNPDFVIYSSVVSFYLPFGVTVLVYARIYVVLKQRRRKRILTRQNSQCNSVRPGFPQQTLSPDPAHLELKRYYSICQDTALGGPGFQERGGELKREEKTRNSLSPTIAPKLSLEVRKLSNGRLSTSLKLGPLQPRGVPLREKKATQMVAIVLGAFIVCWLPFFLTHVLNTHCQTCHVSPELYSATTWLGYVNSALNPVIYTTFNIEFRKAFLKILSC
T2 sequence (P14416 whole entry, canonical isoform): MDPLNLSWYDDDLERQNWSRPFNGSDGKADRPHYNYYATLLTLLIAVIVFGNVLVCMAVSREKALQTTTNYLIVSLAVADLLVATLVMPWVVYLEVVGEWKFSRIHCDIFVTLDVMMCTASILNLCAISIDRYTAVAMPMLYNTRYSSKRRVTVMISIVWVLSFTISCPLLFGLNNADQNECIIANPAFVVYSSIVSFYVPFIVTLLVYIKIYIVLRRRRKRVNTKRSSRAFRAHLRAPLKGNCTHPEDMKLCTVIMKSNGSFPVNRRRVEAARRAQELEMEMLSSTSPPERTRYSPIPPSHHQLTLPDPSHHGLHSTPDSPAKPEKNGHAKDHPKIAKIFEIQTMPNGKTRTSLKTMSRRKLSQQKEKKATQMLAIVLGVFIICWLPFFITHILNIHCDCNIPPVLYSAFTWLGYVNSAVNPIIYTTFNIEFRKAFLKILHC

Turning to `CCCN1CC[C@@H](c2ccc(NS(=O)(=O)c3ccc(Br)cc3F)cc2)C1` [Example 17, 4-Bromo-2-fluoro-N-[4-((S)-1-propyl-pyrrolidin-3-yl)-phenyl]-benzenesulfonamide], in assay [1], the affinity, expressed as Ki, was 3.1 nM and the “Ki(D2)*/Ki(D3)*” value amounted to 41. Moreover, the Ki in assay [2] was 126 nM.
The matching figures for `CC(C)c1ccc(S(=O)(=O)Nc2ccc([C@@H]3CCNC3)cc2)cc1` [Example 18, 4-Isopropyl-N-[4-((S)-pyrrolidin-3-yl)-phenyl]-benzenesulfonamide]: 2.3 nM, 39 and 90 nM.
For the molecule `C=C(C)c1ccc(S(=O)(=O)Nc2ccc([C@@H]3CCN(CCC)C3)cc2)c(F)c1` [Example 19, 2-Fluoro-4-isopropenyl-N-[4-((S)-1-propyl-pyrrolidin-3-yl)-phenyl]-benzenesulfonamide], in assay [1], the Ki was found to be 0.48 nM and the “Ki(D2)*/Ki(D3)*” value was 26. For the same molecule, the inhibition constant (Ki) in assay [2] turned out to be 12.6 nM.
Turning to `C=C(C)c1ccc(S(=O)(=O)Nc2ccc([C@@H]3CCN(CCC)C3)cc2)cc1F` [Example 20, 3-Fluoro-4-isopropenyl-N-[4-((S)-1-propyl-pyrrolidin-3-yl)-phenyl]-benzenesulfonamide], in assay [1], the affinity corresponds to a Ki of 0.3 nM and the “Ki(D2)*/Ki(D3)*” value came out at 24. Besides, the inhibitory constant (Ki) in assay [2] was 7.3 nM.
With `CCCN1CC[C@@H](c2ccc(NS(=O)(=O)c3ccc(C(C)C)cc3F)cc2)C1` [Example 21, 2-Fluoro-4-isopropyl-N-[4-((S)-1-propyl-pyrrolidin-3-yl)-phenyl]-benzenesulfonamide], in assay [1], the Ki is 0.4 nM and the “Ki(D2)*/Ki(D3)*” value is 27. Moreover, the Ki in assay [2] stood at 11 nM.
On the same counts, the results for `CCCN1CC[C@@H](c2ccc(NS(=O)(=O)c3ccc(OC(C)C)cc3)cc2)C1.Cl` [Example 23, 4-Isopropoxy-N-[4-((S)-1-propyl-pyrrolidin-3-yl)-phenyl]-benzenesulfonamide hydrochloride] are 1.07 nM, 44 and 46.6 nM.
Consider `CCCN1CC[C@@H](c2ccc(NS(=O)(=O)c3ccc4c(c3)CCC4)cc2)C1.Cl` [Example 24, Indan-5-sulfonic acid [4-((S)-1-propyl-pyrrolidin-3-yl)-phenyl]-amide hydrochloride], for which, in assay [1], the Ki was 1.2 nM and the “Ki(D2)*/Ki(D3)*” value is listed as 60. In assay [2], the Ki was 72 nM.
On the same counts, the results for `CCCN1CC[C@@H](c2ccc(NS(=O)(=O)c3ccc(Br)cc3)cc2)C1.Cl` [Example 25, 4-Bromo-N-[4-((S)-1-propyl-pyrrolidin-3-yl)-phenyl]-benzenesulfonamide hydrochloride] are 1.6 nM, 60 and 95 nM.
Consider `CCCN1CC[C@@H](c2ccc(NS(=O)(=O)c3ccc(C(C)=O)cc3)cc2)C1` [Example 26, 4-Acetyl-N-[4-((S)-1-propyl-pyrrolidin-3-yl)-phenyl]-benzenesulfonamide], for which, in assay [1], the affinity, expressed as Ki, was 28.1 nM and the “Ki(D2)*/Ki(D3)*” value is reported as 46. Moreover, the Ki in assay [2] worked out at 1280 nM.
Regarding `CCCN1CC[C@@H](c2ccc(NS(=O)(=O)c3ccc(C4CC4)cc3)cc2)C1` [Example 27, 4-Cyclopropyl-N-[4-((S)-1-propyl-pyrrolidin-3-yl)-phenyl]-benzenesulfonamide], the Ki came to 0.23 nM in assay [1] and 7.1 nM in assay [2]. In assay [1], the “Ki(D2)*/Ki(D3)*” value is given as 30.
On the same counts, the results for `CCCN1CC[C@@H](c2ccc(NS(=O)(=O)c3ccc(Br)s3)cc2)C1.Cl` [Example 28, 5-Bromo-thiophene-2-sulfonic acid [4-((S)-1-propyl-pyrrolidin-3-yl)-phenyl]-amide hydrochloride] are 3.3 nM, 133 nM and 41.
Take `C=C(C)c1ccc(S(=O)(=O)Nc2ccc([C@@H]3CCN(CCC)C3)cc2)s1` [Example 29, 5-Isopropenyl-thiophene-2-sulfonic acid [4-((S)-1-propyl-pyrrolidin-3-yl)-phenyl]-amide]: the figures for the Ki in assay [1] and in assay [2] were 0.67 nM and 27.3 nM, respectively. Besides, the “Ki(D2)*/Ki(D3)*” value in assay [1] is 41.
The matching figures for `CCCc1ccc(S(=O)(=O)Nc2ccc([C@@H]3CCN(CCC)C3)cc2)cc1.Cl` [Example 30, 4-Propyl-N-[4-((S)-1-propyl-pyrrolidin-3-yl)-phenyl]-benzenesulfonamide hydrochloride]: 0.28 nM, 11.7 nM and 42.
In the case of `CCCN1CCC(c2ccc(NS(=O)(=O)c3ccc(C(C)C)cc3)cn2)C1` (stereo not drawn) [Example 31, N-[6-(1-propyl-pyrrolidin-3-yl)-pyridin-3-yl]-4-isopropyl-benzene-sulfonamide], in assay [1], the Ki was 10.8 nM and the “Ki(D2)*/Ki(D3)*” value was 24. Moreover, the Ki in assay [2] was 257 nM.
Turning to `CCCN1CC[C@@H](c2ccc(NS(=O)(=O)c3ccc(C(C)CC)cc3)cc2)C1.Cl` (stereo partly drawn) [Example 33, 4-sec-Butyl-N-[4-((S)-1-propyl-pyrrolidin-3-yl)-phenyl]-benzenesulfonamide hydrochloride], in assay [1], the Ki came to 0.17 nM and the “Ki(D2)*/Ki(D3)*” value amounted to 33. Moreover, in assay [2], the Ki amounted to 5.47 nM.
On the same counts, the results for `CCCN1CC[C@@H](c2ccc(NS(=O)(=O)c3cc(F)c(Br)cc3F)cc2)C1` [Example 34] are 5.1 nM, 34 and 174 nM.
As to `CCCN1CC[C@@H](c2ccc(NS(=O)(=O)c3ccc(CC(C)C)cc3)cc2)C1.Cl` [Example 35, 4-Isobutyl-N-[4-((S)-1-propyl-pyrrolidin-3-yl)-phenyl]-benzenesulfonamide hydrochloride], in assay [1], the affinity corresponds to a Ki of 0.3 nM and the “Ki(D2)*/Ki(D3)*” value came to 24. Also, the Ki in assay [2] amounted to 7.4 nM.
On the same counts, the results for `CCCN1CC[C@@H](c2ccc(NS(=O)(=O)c3ccc(C4CCCC4)cc3)cc2)C1` [Example 37, 4-Cyclopentyl-N-[4-(S)-1-propyl-pyrrolidin-3-yl)-phenyl]-benzenesulfonamide hydrochloride] are 0.15 nM, 22 and 3.25 nM.
As for `CC(C)c1ccc(S(=O)(=O)Nc2ccc([C@@H]3CCN(CCCF)C3)cc2)cc1` [Example 38, 4-Isopropyl-N-[4-((S)-1-(3-fluoro-propyl)-pyrrolidin-3-yl)-phenyl]-benzenesulfonamide], the Ki in assay [1] turned out to be 0.29 nM; in assay [2], 6.3 nM. Besides, the “Ki(D2)*/Ki(D3)*” value in assay [1] was 21.
The matching figures for `CCCCOc1ccc(S(=O)(=O)Nc2ccc([C@@H]3CCN(CCC)C3)cc2)cc1` [Example 40, 4-Butyloxy-N-[4-((S)-1-propyl-pyrrolidin-3-yl)-phenyl]-benzenesulfonamide]: 0.46 nM, 18.2 nM and 40.
On the same counts, the results for `CCCN1CC[C@@H](c2ccc(NS(=O)(=O)c3ccc(C4CC4(F)F)cc3)cc2)C1` (stereo partly drawn) [Example 41, 4-(2,2-Difluorocyclopropyl)-N-[4-((S)-1-propyl-pyrrolidin-3-yl)-phenyl]-benzenesulfonamide] are 0.44 nM, 13.5 nM and 30.
On the same counts, the results for `CCCN1CC(c2ccc(NS(=O)(=O)c3ccc(C(C)C)cc3)cn2)C1` [Example 46, 4-Isopropyl-N-[6-(1-propyl-azetidin-3-yl)-pyridin-3-yl]-benzenesulfonamide] are 49 nM, 1830 nM and 37.
`CCCN1CC(c2ccc(NS(=O)(=O)c3ccc(C(C)C)cc3)cc2)C1` [Example 48, 4-Isopropyl-N-[4-(1-propyl-azetidin-3-yl)-phenyl]-benzene sulfonamide]: in assay [1], the affinity corresponds to a Ki of 2.1 nM and the “Ki(D2)*/Ki(D3)*” value came to 65. For the same molecule, in assay [2], the Ki came to 137 nM.
In the case of `CCCN1CC(c2ccc(NS(=O)(=O)c3ccc(OC(F)(F)F)cc3)cc2)C1` [Example 49, N-[4-(1-Propyl-azetidin-3-yl)-phenyl]-4-trifluoromethoxybenzene sulfonamide], the results for the inhibition constant (Ki) in assay [1] and in assay [2] were 46 nM and 1810 nM, respectively. In assay [1], the “Ki(D2)*/Ki(D3)*” value amounted to 39.
On the same counts, the results for `CC(C)c1ccc(S(=O)(=O)Nc2ccc([C@@H]3CCN(CCCO)C3)cc2)cc1` [Example 53, N-{4-[(S)-1-(3-Hydroxy-propyl)-pyrrolidin-3-yl]-phenyl}-4-isopropyl-benzenesulfonamide] are 0.41 nM, 5.85 nM and 14.
In the case of `CCCN1CC[C@@H](c2ccc(NS(=O)(=O)c3ccc(C4CCC4)cc3)cc2)C1` [Example 54, 4-Cyclobutyl-N-[4-((S)-1-propyl-pyrrolidin-3-yl)-phenyl]-benzenesulfonamide], in assay [1], the inhibitory constant (Ki) was determined as 0.32 nM and the “Ki(D2)*/Ki(D3)*” value is given as 27. For the same molecule, the Ki in assay [2] worked out at 8.73 nM.
